The record followed here is patent publication EP4786459A1, “BENZENE RING-CONTAINING COMPOUND HAVING ANALGESIC EFFECT, PREPARATION METHOD THEREFOR, AND USE THEREOF” (West China Hospital, Sichuan University, priority 2023, dated 2025).

The structures appear in SMILES notation.

The nature of data set [1]: Loss of tail withdrawal reflex (LOTWR) in rats, single intravenous injection, dose escalation: potent analgesic effect and severe adverse reactions. Type of data set: in vivo, SD rats. The following applies: rat, in vivo, single intravenous injection, minimum dose resulting in serious adverse reactions / minimum effective dose, class symbol, read-out: The safety therapeutic index. The protocol:
(§1) Using the loss of tail withdrawal reflex (LOTWR) in rats as an indicator, the potent analgesic effect of the compounds according to the present invention was evaluated.
(§2) 1.1 Experimental animals: Adult male SD rats weighing between 220-300 g were selected for the experiment. The rats were housed in sawdust-bedded cages with a temperature of 25±1°C, humidity ranging from 40% to 60%, and a 12-hour light/12-hour dark cycle. Each cage contained no more than 5 rats, with free access to water and food.
(§3) • (1) The compound of the present invention, along with the positive control drug remifentanil and the negative control (vehicle), were administered in fixed volumes. A dose escalation approach was employed to determine the minimum effective dose at which the compound of the present invention produces potent analgesic effects, as well as the minimum dose at which severe adverse reactions first appear. • (2) LOTWR lasting for 30 seconds was used as the criterion for generating potent analgesic effects. During the experiment, drugs were administered via the tail vein of rats, with a dosage volume of 0.6 mL per rat and a dosage rate of 0.02 mL/s. Subsequently, an alligator clip was applied at a distance of 1 cm from the base of the rat's tail, clamping once longitudinally and once transversely before being left in place. Meanwhile, the distal end of the alligator clip was continuously oscillated (30 times/min) to continuously generate stimulation. […] When all results were "no LOTWR" after 10 minutes of testing (5 trials), the test was stopped and recorded as "ineffective." • (3) All compounds would undergo a dose escalation for efficacy evaluation, starting from 1 mg/kg (due to the high potency of remifentanil, the lowest dose was set at 1 µg/kg), followed by 5 mg/kg, 10 mg/kg, 20 mg/kg, and so on (increasing by 20 mg/kg increments after 20 mg/kg). The dose escalation would be stopped when rats show signs of death, and the lowest effective dose and the lowest dose at which severe adverse reactions occur would be recorded throughout the process. In this study, severe adverse reactions are defined as apnea, generalized tonic rigidity, convulsions, opisthotonus, seizures, etc.
(§4) 1.3 Evaluation indicators: the minimum effective dose; the minimum dose resulting in serious adverse reactions; the safety therapeutic index = "the minimum dose resulting in serious adverse reactions" / "the minimum effective dose".

Another data set deals with rats. The data set is described as above. In kind it is in vivo, SD rats. The following applies: Rattus norvegicus, single intravenous injection (tail vein), LOTWR lasting for 30 seconds as criterion, class symbol, read-out: The minimum effective dose. Here is the method:
as §1, §2, §3, §4

For the compound `Cc1ccc(CNC(=O)NCc2ccsc2)c(N(C)C)c1` [Example 1], the selectivity ratio in data set [1] fell in the range of 2 to 4. The minimal effective dose in the data set with rats was not above 10 mg/kg.

As for `Cc1ccc(CNC(=S)NCc2ccsc2)c(N(C)C)c1` [Example 2, 1-(2-(dimethylamino)-4-methylbenzyl)-3-(thiophene-3-ylmethyl)thiourea], in data set [1], the selectivity ratio was not above 2. Further, the minimal effective dose with rats is not above 10 mg/kg.

Consider `Cc1ccc(CNC(=N)NCc2ccsc2)c(N(C)C)c1` [Example 3, 1-(2-(dimethylamino)-4-methylbenzyl)-3-(thiophen-3-ylmethyl)guanidine], for which the selectivity ratio in data set [1] was in the range of 2 to 4. Also, the minimal effective dose in the data set on rats is not above 10 mg/kg.

Turning to `Cc1ccc(CNC(=NC#N)NCc2ccsc2)c(N(C)C)c1` [Example 4], the selectivity ratio in data set [1] was not above 2. Further, the minimal effective dose with rats was more than 30 mg/kg.

Regarding `Cc1ccc(CNC(=O)OCc2ccsc2)c(N(C)C)c1` [Example 5], the selectivity ratio in data set [1] lay within 2 to 4. Further, the minimal effective dose in the data set with rats is not above 10 mg/kg.

For the compound `Cc1ccc(COC(=O)NCc2ccsc2)c(N(C)C)c1` [Example 6, 2-(dimethylamino)-4-methylbenzyl(thiophene-3-ylmethyl)carbamate], in data set [1], the selectivity ratio was in the range of 2 to 4. In the data set on rats, the minimal effective dose was not above 10 mg/kg.

Regarding `Cc1ccc(CNC(=C[N+](=O)[O-])NCc2ccsc2)c(N(C)C)c1` [Example 7], in data set [1], the selectivity ratio is not above 2. Moreover, in the data set on rats, the minimal effective dose was more than 30 mg/kg.

For the compound `Cc1ccc(CNc2c(NCc3ccsc3)c(=O)c2=O)c(N(C)C)c1` [Example 8], the selectivity ratio in data set [1] is not above 2. The minimal effective dose in the data set with rats was more than 30 mg/kg.

As for `Cc1ccc(CNC(=O)NCc2ccoc2)c(N(C)C)c1` [Example 9], the selectivity ratio in data set [1] is not above 2. Further, the minimal effective dose in the data set on rats lay within 20 to 30 mg/kg.

Consider `Cc1ccc(CNC(=O)NCc2cccs2)c(N(C)C)c1` [Example 10], for which the selectivity ratio in data set [1] was more than 4. In the data set on rats, the minimal effective dose was not above 10 mg/kg.

As for `Cc1ccc(CCNC(=O)NCc2ccsc2)c(N(C)C)c1` [Example 11, 1-(2-(dimethylamino)-4-methylphenethyl)-3-(thiophene-3-ylmethyl)urea], the selectivity ratio in data set [1] was 2 to 4. In addition, the minimal effective dose in the data set with rats was not above 10 mg/kg.

On to `Cc1ccc(CNC(=O)NCCc2ccsc2)c(N(C)C)c1` [Example 12, 1-(2-(dimethylamino)-4-methylbenzyl)-3-(2-(thiophene-3-yl)ethyl)urea], for which the selectivity ratio in data set [1] is not above 2. The minimal effective dose in the data set with rats was not above 10 mg/kg.

`Cc1ccc(NC(=O)Nc2ccsc2)c(N(C)C)c1` [Example 13]: the selectivity ratio in data set [1] is more than 4. Besides, in the data set on rats, the minimal effective dose is not above 10 mg/kg.

Consider `Cc1ccc(NC(=N)Nc2ccsc2)c(N(C)C)c1` [Example 14], for which the selectivity ratio in data set [1] is not above 2. In addition, in the data set on rats, the minimal effective dose was not above 10 mg/kg.

`CN(C)c1cc(O)ccc1CNC(=O)NCc1ccsc1` [Example 15]: the selectivity ratio in data set [1] is more than 4. The minimal effective dose in the data set with rats was 10 to 20 mg/kg.

Regarding `[2H]C([2H])([2H])N(c1cc(C)ccc1CNC(=O)NCc1ccsc1)C([2H])([2H])[2H]` [Example 17], the selectivity ratio in data set [1] is 2 to 4. In addition, the minimal effective dose in the data set on rats was not above 10 mg/kg.

With `Cc1ccc(CNC(=O)NCc2ccsc2)cc1N(C)C` [Example 18], the selectivity ratio in data set [1] is 2 to 4. In addition, the minimal effective dose with rats is not above 10 mg/kg.

Regarding `Cc1ccc(CNC(=S)NCc2ccsc2)cc1N(C)C` [Example 19, 1-(3-(dimethylamino)-4-methylbenzyl)-3-(thiophene-3-ylmethyl)thiourea], in data set [1], the selectivity ratio was not above 2. Further, the minimal effective dose in the data set with rats is not above 10 mg/kg.

Regarding `Cc1ccc(CNC(=N)NCc2ccsc2)cc1N(C)C` [Example 20, 1-(3-(dimethylamino)-4-methylbenzyl)-3-(thiophen-3-ylmethyl)guanidine], the selectivity ratio in data set [1] was not above 2. For the same compound, the minimal effective dose in the data set with rats was not above 10 mg/kg.

For the compound `Cc1ccc(NC(=N)Nc2ccsc2)cc1N(C)C` [Example 21], the selectivity ratio in data set [1] was more than 4. Also, in the data set on rats, the minimal effective dose is not above 10 mg/kg.

Consider `COC(=O)C(C#N)=C(NCc1ccsc1)NCc1ccc(C)cc1N(C)C` [Example 22], for which, in data set [1], the selectivity ratio is not above 2. The minimal effective dose in the data set on rats is more than 30 mg/kg.

For the compound `Cc1ccc(CNC(=O)NCc2ccco2)c(N(C)C)c1` [Example 23], the selectivity ratio in data set [1] is not above 2. The minimal effective dose in the data set with rats was more than 30 mg/kg.

Turning to `CN(C)c1ccccc1CNC(=O)NCc1ccsc1` [Example 24], the selectivity ratio in data set [1] fell in the range of 2 to 4. In addition, in the data set on rats, the minimal effective dose was 10 to 20 mg/kg.

`Cc1ccc(CNC(=N)NCc2cccs2)c(N(C)C)c1` [Example 26]: the selectivity ratio in data set [1] is not above 2. Besides, in the data set on rats, the minimal effective dose was more than 30 mg/kg.

With `CN(C)c1ccccc1CNC(=O)NCc1cccs1` [Example 27], the selectivity ratio in data set [1] was more than 4. The minimal effective dose in the data set with rats is not above 10 mg/kg.

Consider `CN(C)c1ccccc1CNC(=S)NCc1cccs1` [Example 28], for which the selectivity ratio in data set [1] is not above 2. In addition, in the data set on rats, the minimal effective dose is more than 30 mg/kg.

Regarding `CN(C)c1cc(C(F)(F)F)ccc1CNC(=O)NCc1cccs1` [Example 29], the selectivity ratio in data set [1] was not above 2. In addition, the minimal effective dose with rats is not above 10 mg/kg.

For the compound `CN(C)c1cccc(CNC(=O)NCc2ccsc2)c1` [Example 30], the selectivity ratio in data set [1] is not above 2. Further, in the data set on rats, the minimal effective dose lay within 20 to 30 mg/kg.

With `Cc1ccc(CNC(=O)NCc2cccs2)cc1N(C)C` [Example 31], the selectivity ratio in data set [1] is more than 4. Further, the minimal effective dose in the data set with rats is not above 10 mg/kg.

In the case of `Cc1ccc(CNC(=S)NCc2cccs2)cc1N(C)C` [Example 32], in data set [1], the selectivity ratio was more than 4. Moreover, the minimal effective dose in the data set on rats is not above 10 mg/kg.

For the compound `Cc1ccc(CNC(=N)NCc2cccs2)cc1N(C)C` [Example 33], the selectivity ratio in data set [1] was not above 2. In addition, in the data set with rats, the minimal effective dose is not above 10 mg/kg.

Turning to `CN(C)c1cccc(CNC(=O)NCc2cccs2)c1` [Example 34], the selectivity ratio in data set [1] was not above 2. Also, the minimal effective dose in the data set with rats fell in the range of 20 to 30 mg/kg.

For the compound `Cc1ccc(CNC(=O)NCc2ccoc2)cc1N(C)C` [Example 35], the selectivity ratio in data set [1] fell in the range of 2 to 4. Also, the minimal effective dose in the data set with rats was 20 to 30 mg/kg.

For `Cc1ccc(CNC(=O)NCc2ccco2)cc1N(C)C` [Example 36], the selectivity ratio in data set [1] is more than 4. In addition, in the data set on rats, the minimal effective dose is not above 10 mg/kg.

On to `Cc1ccc(CNC(=O)NCc2ccns2)c(N(C)C)c1` [Example 37], for which, in data set [1], the selectivity ratio is more than 4. In the data set on rats, the minimal effective dose was not above 10 mg/kg.

As to `Cc1ccc(CNC(=O)NCc2cncs2)c(N(C)C)c1` [Example 38], the selectivity ratio in data set [1] was 2 to 4. The minimal effective dose in the data set with rats is 10 to 20 mg/kg.

For the compound `Cc1ccc(CNC(=O)NCc2nccs2)c(N(C)C)c1` [Example 39], the selectivity ratio in data set [1] lay in the range of 2 to 4. In addition, in the data set on rats, the minimal effective dose fell in the range of 10 to 20 mg/kg.

For `CN(C)c1ccccc1CNC(=O)NCc1ccns1` [Example 41], the selectivity ratio in data set [1] was not above 2. Moreover, in the data set on rats, the minimal effective dose is more than 30 mg/kg.

In the case of `Cc1ccc(CNC(=O)NCc2ccno2)c(N(C)C)c1` [Example 42], in data set [1], the selectivity ratio is not above 2. Further, the minimal effective dose in the data set on rats was more than 30 mg/kg.

`Cc1ccc(CNC(=O)NCc2ncc[nH]2)c(N(C)C)c1` [Example 43]: the selectivity ratio in data set [1] was more than 4. Further, in the data set on rats, the minimal effective dose lay within 10 to 20 mg/kg.

Turning to `COC(=O)CCc1ccc(CNC(=O)NCc2ccsc2)c(N(C)C)c1` [Example 44], in data set [1], the selectivity ratio was not above 2. In addition, the minimal effective dose in the data set with rats lay within 10 to 20 mg/kg.

In the case of `CNC(=O)CCc1ccc(CNC(=O)NCc2ccsc2)c(N(C)C)c1` [Example 45], the selectivity ratio in data set [1] is 2 to 4. Also, the minimal effective dose in the data set on rats is more than 30 mg/kg.

In the case of `Cc1ccc(CNC(=O)NCc2nnn[nH]2)c(N(C)C)c1` [Example 46], in data set [1], the selectivity ratio is not above 2. For the same compound, the minimal effective dose in the data set on rats was more than 30 mg/kg.

With `COc1c(N(C)C)cc(CNC(=O)NCc2ccsc2)cc1N(C)C` [Example 47], in data set [1], the selectivity ratio is not above 2. The minimal effective dose in the data set on rats is not above 10 mg/kg.

For the compound `CN(C)c1ccc(Oc2ccccc2)cc1CNC(=O)NCc1ccsc1` [Example 48], in data set [1], the selectivity ratio lay in the range of 2 to 4. Moreover, the minimal effective dose in the data set with rats was not above 10 mg/kg.

For `Cc1ccc(N(C)C)c(CNC(=O)NCc2ccns2)c1` [Example 49], in data set [1], the selectivity ratio lay in the range of 2 to 4. Further, the minimal effective dose in the data set on rats is more than 30 mg/kg.

For `COC(=O)c1ccc(CNC(=O)NCc2ccc(C)cc2N(C)C)s1` [Example 50], the selectivity ratio in data set [1] is not above 2. For the same compound, in the data set on rats, the minimal effective dose is 20 to 30 mg/kg.

On to `CCCCc1cc(CNC(=O)NCc2ccc(C)cc2N(C)C)cs1` [Example 51], for which, in data set [1], the selectivity ratio lay within 2 to 4. In addition, the minimal effective dose with rats was not above 10 mg/kg.

On to `CCCCc1cscc1CNC(=O)NCc1ccc(C)cc1N(C)C` [Example 52], for which, in data set [1], the selectivity ratio is 2 to 4. Besides, the minimal effective dose in the data set on rats was not above 10 mg/kg.
